Assay results as given in patent publication US11291642B2, “Dimethyl fumarate particles and pharmaceutical compositions thereof” (BIOGEN MA INC., priority 2015, dated 2022).
Where a name gives a salt, the structure may show the parent alone.

Experiments:
[1] = Comparison of unmilled coarse DMF versus wet-milled DMF for enteric coating in fluid bed; assay type: physicochemical; conditions: for Coated crystals: enterically coated particles made from the named API
Description: The enteric coated DMF is prepared using a Glatt GPCG-2 fluid bed granulator with a 6′ Wurster column. Dissolution was run with USP apparatus II by the Pharmaceutical Analytical Development Department with the following method.
DMF first de-lumped with a Frewitt Comill with screen size 1.0 mm. Then, it is mixed with silicon dioxide (Aerosil) and being fluidize in the fluid bed granulator for 5 minutes.
Eudragit L100 and triethyl citrate is used for coating an enteric layer for stomach acid protection on the DMF API particles. Samples were taken at different L100 weight gain to compare gastric protection capability.
Unmilled coarse DMF were coated according to the method of described in Example 5. Various properties of the unmilled coarse DMF and enterically coated DMF are compared with wet-milled DMF and enterically coated DMF made from wet-milled DMF.

[2] = Mean particle size of coarse DMF from current synthesis (method not given); assay type: physicochemical; conditions: DMF isolated from current chemical synthesis, before size reduction

Q: For `COC(=O)/C=C/C(=O)OC` [Unmilled coarse API, dimethyl fumarate], which Coated crystals [1] is on record?
A: Significant agglomeration

Q: What about the Coated crystals ([1]; listed as unmilled coarse DMF particles) of the same compound?
A: Significant agglomeration of the coated particles

Q: What about the “Flow of API particle in fluid bed” value ([1]; fluid bed coating process) of the same compound?
A: Uneven flow due to API plate

Q: What about the Particle morphology ([1]; uncoated API particles) of the same compound?
A: 2D plate structure

Q: What about the “typical mean particle size” value [2] of the same compound?
A: 500-600 microns
